Experimental findings from patent US20100016250A1, “TOLL-LIKE RECEPTOR 9 AGONISTS” (KYOWA HAKKO KIRIN CO., LTD., priority 2006, published 2010) are described below.

For one assay, the system named is CD40. To be noted: BGERKB5 cells, 50 nmol/L, 12 hours. The protocol:
(§1) Flow cytometry analysis of CD40, CD80, CD86, etc., which are co-stimulating molecules important for the activation of lymphocytes, can be carried out in the following manner.
(§2) The BGERKB5 cell suspension having a concentration of 1.1×10^6 cells/mL obtained in Test Example 1 (90 μL) was put into wells of a 96-well plate containing an aqueous solution of a test compound prepared according to the method described in Test Example 1 (10 μL) (final concentration: 50 nmol/L), followed by incubation in a CO2 incubator at 37° C. for 12 hours (test compound group). As a control test, a control group without addition of a test compound was also prepared.
(§3) The following experiments were carried out at a temperature not more than 4° C. The cells were washed twice with 200 μL of phosphate buffer (PBS) containing 1% bovine serum albumin (Fraction V, Sigma) and 0.05% sodium azide, followed by replacement with the same buffer (100 μL). A phycoerythrin-labeled mouse anti-human CD40 monoclonal antibody solution (BD Biosciences), a phycoerythrin-labeled mouse anti-human CD80 monoclonal antibody solution (BD Biosciences) or a phycoerythrin-labeled mouse anti-human CD86 monoclonal antibody solution (BD Biosciences) (2 μL) was added to the cells, and after stirring, the cells were allowed to stand in the dark for 50 minutes.
(§4) The cells were washed twice with 200 μL of phosphate buffer (PBS) containing 1% bovine serum albumin (Fraction V, Sigma) and 0.05% sodium azide, followed by replacement with the same buffer (500 μL).
(§5) The cell count was determined using EPICS XL-MCL (Beckman Coulter, Inc., excitation wavelength 488 nm, argon laser) as a flow cytometer and a positive cell ratio was calculated. As a measurement software, System 2 version 3.0 (Beckman Coulter, Inc.) was used.

Another assay deals with CD80. To be noted: BGERKB5 cells, 50 nmol/L, 12 hours. The method, then: as §1, §2, §3, §4, §5
For another assay, the system named is CD86. The conditions noted are these: BGERKB5 cells, 50 nmol/L, 12 hours. The protocol: as §1, §2, §3, §4, §5
The next assay relates to interleukin 12B (IL12B). The conditions noted are these: Mock cells, 50 nmol/L, 5 hours; corrected with GAPDH, ratio to solvent control (=1). The protocol: (§6) The remaining portion (2.6 mL) of each of the cell suspensions of the four groups used in Test Example 4 was incubated in a 15-mL sterile tube for 5 hours. The cells were collected, and the expression levels of genes of glyceraldehyde-3-phosphoate dehydrogenase (GAPDH), luciferase (NF-κB promoter-derived) (NF-κB-LUC), interleukin 12B (IL12B) and CD80 antigen (CD80) were measured by the quantitative RT-PCR method using SYBR-Green [see Bio Techniques, Vol. 22, p. 130-131, p. 134-138 (1997)].
(§7) That is, the cell suspension of each group remaining in the above test was subjected to the following procedure.
(§8) The cell suspension (1×10^6 cells/mL) of each group (2.6 mL: total cell number 2.6×10^6 cells) was centrifuged using himac CF702 centrifuge (Hitachi Koki Co., Ltd.) at 4° C. at 800 rpm for 10 minutes, and after the supernatant was removed using Pipetman, PBS (2 mL) was added. The obtained cell suspension was further centrifuged using himac CF702 centrifuge (Hitachi Koki Co., Ltd.) at 4° C. at 800 rpm for 10 minutes, and the supernatant was removed using Pipetman to obtain cells.
(§9) Total RNA was extracted from the obtained cells using RNeasy Mini Kit (registered trademark: Qiagen, Inc.) according to the manual attached to the kit. By using the obtained total RNA as a template, cDNA was synthesized in the following manner using Super Script First-strand Synthesis System for RT-PCR (Invitrogen Corp.) according to the manual attached to the kit.
(§10) Ten mmol/L dNTPs mixture solution (1.0 μL) and 0.5 μg/μL oligo(dT)12-18 primer (1.0 μL) were added to the […] (5 μg), and the mixture was diluted with an aqueous solution of diethyl pyrocarbonate (DEPC) to make a total volume of 10.0 μL. The obtained solution was heated at 65° C. for 5 minutes, then rapidly cooled on ice, and allowed to stand for more than one minute for denaturation.

The test system of assay [1] is glyceraldehyde-3-phosphate dehydrogenase (GAPDH). To be noted: Mock cells, 50 nmol/L, 5 hours; GAPDH is the internal standard regarded as 1; solvent control = 1. The protocol: as §6, §7, §8, §9, §10
The next assay relates to CD80 antigen (CD80). To be noted: Mock cells, 50 nmol/L, 5 hours; corrected with GAPDH, ratio to solvent control (=1). The protocol: as §6, §7, §8, §9, §10
The test system of assay [2] is luciferase (NF-κB promoter-derived) (NF-κB-LUC). The conditions noted are these: Mock cells, 50 nmol/L, 5 hours; corrected with GAPDH, ratio to solvent control (=1). The method, then:
as §6, §7, §8, §9, §10

The next assay deals with NF-κB. In words: Promoting effect on NF-κB promoter-dependent transcriptional activity (luciferase reporter). In kind it is cell-based, human. The conditions noted are these: BGERKB5 cells (Namalwa KJM-1 with pIF-luc), 5 hours incubation; FIGS. 2 and 3. The protocol: For the purpose of constructing an evaluation system for determination of NF-κB activity, the following stable transformant cell line was used. NF-κB luciferase reporter plasmid pIF-luc (containing a hygromycin resistant gene expression unit) introduced into cells was prepared by the method described in Japanese Published Unexamined Patent Application No. 169479/00. The plasmid was introduced into a human B-cell line, Namalwa (KJM-1) [Cytotechnology, Vol. 1, p. 151 (1988)], followed by culturing with addition of 0.3 mg/mL hygromycin B to select hygromycin-resistant cells. Among the selected hygromycin-resistant cells, a cell line with which enhancement of luciferase activity by TNF-α (10 ng/mL) stimulation was confirmed (hereinafter referred to as BGERKB5 cells) was used in the following test.
The BGERKB5 cells were suspended in RPMI1640·ITPSG medium having the following composition at a concentration of 1×10^6 cells/mL (hereinafter referred to as the BGERKB5 cell suspension). A test compound was dissolved in phosphate buffer (pH 5) and diluted to a desired concentration with RPMI1640·ITPSG medium to prepare an aqueous solution.
To RPMI1640 medium (Nissui Pharmaceutical Co., Ltd.) were added the following substances at the following concentration or ratio based on the medium (the resulting medium is hereinafter referred to as RPMI1640·ITPSG medium).

The target in another assay is TLR9 (Homo sapiens, UniProt Q9NR96). To be noted: BGERKB5 cells without siRNA (Mock), 50 nmol/L, 5 hours.
In the next assay the test system is IP-10. The conditions noted are these: BGERKB5 cells, 50 nmol/L, 48 hours, culture supernatant. The method, then: Enzyme-linked immunosorbent assay (ELISA) of IP-10 can be carried out in the following manner.
As a control test, a control group without addition of a test compound was also prepared.
Measurement of the amount of IP-10 produced by the BGERKB5 cells was carried out using an immunoassay kit (BioSource International, Inc.). A calibration curve was prepared using the preparation attached to the kit, and the amount of IP-10 in the culture supernatant was measured.

Sequence of TLR9 (Q9NR96 26-1032): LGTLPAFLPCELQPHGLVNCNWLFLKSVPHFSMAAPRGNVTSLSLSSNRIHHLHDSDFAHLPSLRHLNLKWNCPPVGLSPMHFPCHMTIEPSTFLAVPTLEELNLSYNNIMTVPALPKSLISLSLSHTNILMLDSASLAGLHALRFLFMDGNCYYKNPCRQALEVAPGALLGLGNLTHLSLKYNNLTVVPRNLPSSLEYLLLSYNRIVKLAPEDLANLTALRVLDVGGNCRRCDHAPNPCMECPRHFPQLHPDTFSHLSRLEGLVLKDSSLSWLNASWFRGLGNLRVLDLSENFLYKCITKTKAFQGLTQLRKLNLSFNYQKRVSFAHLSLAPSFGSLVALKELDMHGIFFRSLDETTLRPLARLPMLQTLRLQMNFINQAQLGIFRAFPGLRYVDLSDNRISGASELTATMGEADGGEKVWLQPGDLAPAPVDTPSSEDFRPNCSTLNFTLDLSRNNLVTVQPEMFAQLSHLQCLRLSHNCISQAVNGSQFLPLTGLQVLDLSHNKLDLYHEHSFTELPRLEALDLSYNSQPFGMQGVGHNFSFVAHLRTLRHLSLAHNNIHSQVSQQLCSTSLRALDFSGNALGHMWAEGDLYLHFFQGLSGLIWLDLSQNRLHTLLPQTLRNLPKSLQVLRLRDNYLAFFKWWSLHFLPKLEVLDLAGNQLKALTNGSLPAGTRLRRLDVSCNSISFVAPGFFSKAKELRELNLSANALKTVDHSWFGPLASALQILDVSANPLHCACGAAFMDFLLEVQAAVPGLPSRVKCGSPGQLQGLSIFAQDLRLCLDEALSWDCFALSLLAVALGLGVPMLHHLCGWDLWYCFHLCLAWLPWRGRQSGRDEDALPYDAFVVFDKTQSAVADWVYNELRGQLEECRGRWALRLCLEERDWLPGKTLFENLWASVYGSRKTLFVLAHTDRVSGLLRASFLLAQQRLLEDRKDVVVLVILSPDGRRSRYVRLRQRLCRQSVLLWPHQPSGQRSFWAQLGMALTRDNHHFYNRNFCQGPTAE
Description for TLR9: A knockdown test of TLR9 using siRNA in BGERKB5 cells can be carried out in the following manner.
A BGERKB5 cell suspension (0.5 mL) having a concentration of 4×10^5 cells/mL obtained according to the method described in Test Example 1 was seeded into 6 wells of a 24-well plate (total cell number: 1.2×10^6 cells), followed by incubation in a CO2 incubator at 37° C. for 24 hours.
Then, siRNA against TLR9 (Ambion, Inc., pre-designed siRNA, ID#6055, Cat. 16704, Lot. 047951si) was introduced in an amount of 100 pmol per well using lipofectamine 2000 (Invitrogen Corp.).
Twenty-four hours after the siRNA introduction, the medium was replaced with a fresh one, followed by further incubation for 48 hours. The obtained cells were collected in a sterile tube and suspended in RPMI1640·ITPSG medium at a concentration of 1×10^6 cells/mL (TLR9 kd group). “Mock group” containing no siRNA was prepared in the same manner as in the preparation of “TLR9 kd group”. […]
A 400-μL portion from each of the cell suspensions of the four groups (3 mL) was seeded in quadruplicate 100 μL aliquots into a 96-well plate, followed by incubation for 5 hours. Steady-Glo (Promega Corp.) (100 μL) was added and the luciferase activity (RLU) in each well was measured using Multilabel Counter ARVO (Perkin-Elmer Corp.).

Turning to `Nc1ncnc2c1ncn2[C@@H]1O[C@H](COP(=O)(O)OP(=O)(O)O[C@@H]2O[C@H]([C@H](O)CO)[C@@H](O)[C@H](O)[C@@H]2O)[C@@H](O)[C@H]1O` [Compound 16, Adenosine=5′-(D-glycero-β-D-mannoheptopyranosyl)diphosphate], in the assay with CD40, the “Positive cell ratio (%) CD40” value is 93.6%. Moreover, the “Positive cell ratio (%) CD80” value in the assay on CD80 amounted to 45.7%. The “Positive cell ratio (%) CD86” value in the assay on CD86 stood at 78.4%. Also, in the assay with interleukin 12B (IL12B), the “relative mRNA expression level, IL12B, Mock” value was 1.4. Moreover, the “relative mRNA expression level, GAPDH, Mock” value in assay [1] was 1.0. For the same compound, in the assay on CD80 antigen (CD80), the “relative mRNA expression level, CD80, Mock” value was found to be 127. The “relative mRNA expression level, NF-κB-LUC, Mock” value in assay [2] came to 59.7. Besides, the “luciferase activity (RLU), activating effect on NF-κB” value (“luciferase activity (RLU) … on NF-κB” below) in the assay on NF-κB is on record as “enhancement of luciferase activity was confirmed”. Besides, the “Luciferase activity (RLU) (mean ± standard error), Mock” value on TLR9 is listed as 7196.7 ± 88.8 RLU. Also, the “amount of IP-10 produced” value in the assay on IP-10 turned out to be 1441 pg/mL.
`Nc1ncnc2c1ncn2[C@@H]1O[C@H](COP(=O)(O)OP(=O)(O)O[C@@H]2OC([C@@H](O)CO)[C@@H](O)C(O)C2O)C(O)C1O` (stereo partly drawn) [Compound 12, Adenosine=5′-(L-glycero-β-D-mannopyranosyl)diphosphate]: the “luciferase activity (RLU) … on NF-κB” value with NF-κB is recorded as “enhancement of luciferase activity was confirmed”.
With `Nc1ncnc2c1ncn2C1OC(COP(=O)(O)OP(=O)(O)OC2OC(CCO)C(O)C(O)C2O)C(O)C1O` [Compound 2, Adenosine=5′-(6-deoxy-β-D-mannoheptopyranosyl)diphosphate], in the assay with NF-κB, the “luciferase activity (RLU) … on NF-κB” value was “enhancement of luciferase activity was confirmed”.
Take `CC(=O)OCC(OC(C)=O)C1OC(OP(=O)(O)OP(=O)(O)OCC2OC(n3cnc4c(N)ncnc43)C(O)C2O)C(OC(C)=O)C(OC(C)=O)C1OC(C)=O` [Compound 10, Adenosine=5′-(2,3,4,6,7-penta-O-acetyl-L-glycero-β-D-mannoheptopyranosyl)diphosphate]: the “luciferase activity (RLU) … on NF-κB” value in the assay on NF-κB was “enhancement of luciferase activity was confirmed”.
Regarding `CC(=O)OCCC1OC(OP(=O)(O)OP(=O)(O)OCC2OC(n3cnc4c(N)ncnc43)C(O)C2O)C(OC(C)=O)C(OC(C)=O)C1OC(C)=O` [Compound 1, Adenosine=5′-(2,3,4,7-tetra-O-acetyl-6-deoxy-β-D-mannoheptopyranosyl)diphosphate], the “luciferase activity (RLU) … on NF-κB” value with NF-κB is given as “enhancement of luciferase activity was confirmed”.
On the same count and under the same terms, then `CC(=O)OC[C@@H](OC(C)=O)[C@H]1O[C@@H](OP(=O)(O)OP(=O)(O)OC[C@H]2O[C@@H](n3cnc4c(N)ncnc43)[C@H](O)[C@@H]2O)[C@@H](OC(C)=O)[C@@H](OC(C)=O)[C@@H]1OC(C)=O` [Compound 14, Adenosine=5′-(2,3,4,6,7-penta-O-acetyl-D-glycero-β-D-mannoheptopyranosyl)diphosphate], with “enhancement of luciferase activity was confirmed”.
On to “Adenosine=5′-(6-deoxy-β-D-mannoheptopyranosyl)-α, β-methylene diphosphate [Compound 30]”, for which, in the assay with NF-κB, the “luciferase activity (RLU) … on NF-κB” value was “enhancement of luciferase activity was confirmed”. Moreover, the “amount of IP-10 produced” value in the assay with IP-10 turned out to be 821 pg/mL.
